Data taken from paper PMC10709440, “High-throughput ligand profile characterization in novel cell lines expressing seven heterologous insect olfactory receptors for the detection of volatile plant biomarkers” (Scientific Reports, 2023).
Where two headings read alike, the source gives them in different places.

How the values were obtained:
Drosophila OR47a = biological target: T1, Drosophila OR47a (Drosophila melanogaster, UniProt P81921); assay: Calcium ion fluorescence (GCaMP6) assay, OR47a stable HEK293 cell line; format: cell-based; set-up: key to DF norm AVERAGE OR47a: VOC ∆F divided by the plate's mean ∆F response to 50 µM VUAA1; settings: for Average response: OR47a cell line, mean of biological replicates; for DF norm AVERAGE OR47a: threshold 0.05, below shown as 0; for OR47a Average response (VUAA1-normalized): 50 μM VUAA1 = 1
T1 construct: expressed in transfected cells
T1 sequence (P81921 1-385): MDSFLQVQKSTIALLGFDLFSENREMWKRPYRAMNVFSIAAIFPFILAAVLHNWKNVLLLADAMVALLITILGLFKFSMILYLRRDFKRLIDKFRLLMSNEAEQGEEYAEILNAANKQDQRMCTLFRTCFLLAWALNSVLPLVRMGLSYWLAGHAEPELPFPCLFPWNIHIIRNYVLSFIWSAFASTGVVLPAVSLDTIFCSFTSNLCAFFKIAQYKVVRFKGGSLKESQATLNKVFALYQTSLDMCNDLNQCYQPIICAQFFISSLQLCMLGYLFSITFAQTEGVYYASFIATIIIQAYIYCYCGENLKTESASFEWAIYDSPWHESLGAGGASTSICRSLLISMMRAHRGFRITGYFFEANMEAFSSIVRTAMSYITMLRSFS
T1 sequence (Q9VNB5 1-486 partner): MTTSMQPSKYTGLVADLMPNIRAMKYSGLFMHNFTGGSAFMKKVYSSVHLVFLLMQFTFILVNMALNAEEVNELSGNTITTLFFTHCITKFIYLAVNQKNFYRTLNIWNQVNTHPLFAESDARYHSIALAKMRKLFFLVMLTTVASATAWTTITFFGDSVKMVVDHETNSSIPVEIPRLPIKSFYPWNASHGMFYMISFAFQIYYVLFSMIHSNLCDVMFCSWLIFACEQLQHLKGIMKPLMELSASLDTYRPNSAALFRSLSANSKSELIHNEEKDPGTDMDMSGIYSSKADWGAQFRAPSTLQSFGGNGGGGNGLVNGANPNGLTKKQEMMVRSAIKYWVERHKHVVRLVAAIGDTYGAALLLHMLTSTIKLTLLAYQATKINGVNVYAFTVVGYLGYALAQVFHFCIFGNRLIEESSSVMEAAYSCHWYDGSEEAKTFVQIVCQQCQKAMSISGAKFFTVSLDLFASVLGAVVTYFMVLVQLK
In short: (§1)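 Responses are VUAA1-normalized ΔF: each VOC-evoked calcium signal, (FMAX−F0)/F0 over 30 s after injection, divided by the same line's mean 50 µM VUAA1 response. Cells were doxycycline-induced HEK293 with GCaMP6 and the cognate Drosophila OR, in HEPES buffer pH 7.3; ligands tested 0.01–100 μM.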

Drosophila OR71a = biological target: T2, Drosophila OR71a (Drosophila melanogaster, UniProt Q9VUK5); assay: Calcium ion fluorescence (GCaMP6) assay, OR71a stable HEK293 cell line; format: cell-based; set-up: key to DF norm AVERAGE OR71a: VOC ∆F divided by the plate's mean ∆F response to 50 µM VUAA1; settings: for activation at 1 µM / activation at 10 µM / activation at 100 µM: HEK293, read-out: OR71a response (VUAA1-normalized response); for Average response: OR71a cell line, VUAA1-normalized response, mean of biological replicates; for DF norm AVERAGE OR71a: threshold 0.05, below shown as 0; for OR71a Average response (VUAA1-normalized): 50 μM VUAA1 = 1
T2 construct: expressed in transfected cells
T2 sequence (Q9VUK5 1-378): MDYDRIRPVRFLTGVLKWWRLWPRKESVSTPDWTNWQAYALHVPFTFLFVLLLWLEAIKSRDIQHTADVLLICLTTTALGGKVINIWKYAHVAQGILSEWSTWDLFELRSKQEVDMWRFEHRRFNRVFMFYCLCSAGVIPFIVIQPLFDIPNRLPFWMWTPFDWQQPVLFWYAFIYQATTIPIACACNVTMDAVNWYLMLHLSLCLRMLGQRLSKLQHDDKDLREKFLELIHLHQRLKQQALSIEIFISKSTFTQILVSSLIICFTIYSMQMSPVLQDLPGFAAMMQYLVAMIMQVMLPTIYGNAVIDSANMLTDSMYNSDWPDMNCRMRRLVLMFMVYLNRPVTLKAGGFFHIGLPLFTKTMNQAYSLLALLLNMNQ
T2 sequence (Q9VNB5 1-486 partner): T1 sequence (Q9VNB5 1-486 partner)
In short: as §1

[1] = HEK293, read-out: OR47a response (VUAA1-normalized response)
[2] = ligand concentration 1 (unit not given)
[3] = ligand concentration 10 (unit not given)
[4] = ligand concentration 100 (unit not given)
[5] = HEK293, read-out: OR47a Average response (VUAA1-normalized)

SMILES	activation at 1 µM (Drosophila OR47a; [1]) [%]	activation at 10 µM (Drosophila OR47a; [1]) [%]	activation at 100 µM (Drosophila OR47a; [1]) [%]	Average response (Drosophila OR47a; odorant cc. 1 µM)	Average response (Drosophila OR47a; odorant cc. 10 µM)	Average response (Drosophila OR47a; odorant cc. 100 µM)	DF norm AVERAGE OR47a (Drosophila OR47a; [2])	DF norm AVERAGE OR47a (Drosophila OR47a; [3])	DF norm AVERAGE OR47a (Drosophila OR47a; [4])	activation at 1 µM (Drosophila OR71a) [%]	activation at 10 µM (Drosophila OR71a) [%]	activation at 100 µM (Drosophila OR71a) [%]	Average response (Drosophila OR71a; cc. 1 µM)	Average response (Drosophila OR71a; cc. 10 µM)	Average response (Drosophila OR71a; cc. 100 µM)	DF norm AVERAGE OR71a (Drosophila OR71a; [2])	DF norm AVERAGE OR71a (Drosophila OR71a; [3])	DF norm AVERAGE OR71a (Drosophila OR71a; [4])	other results
C=C1CCC2CC1C2(C)C (stereo not drawn) [beta-pinene]	0	0	0	0.00	0.00	0.00	0	0	0	0	0	0	0.0344	0.0361	0.00	0	0	0	–
CCCCCCCCCC=O [decanal]	0	0	0	0.00	0.00	0.00	0	0	0	0	0	0	0.00	0.00	0.0139	0	0	0	–
CC/C=C/CCO [e3-hexenol]	–	–	–	0.06	0.00	0.14	0.06256	0	0.1396	–	–	–	0.00	0.0432	0.0275	0	0	0	OR47a Average response (VUAA1-normalized) (Drosophila OR47a; 1 μM VOC): 0.06; OR47a Average response (VUAA1-normalized) (Drosophila OR47a; 10 μM VOC): 0.00; OR47a Average response (VUAA1-normalized) (Drosophila OR47a; 100 μM VOC): 0.14
CC(C)=CCC/C(C)=C/CC/C(C)=C/CO [e,e-farnesol]	–	–	–	0.03	0.00	0.032	0	0	0	–	–	–	0.00	0.0452	0.00	0	0	0	OR47a response (VUAA1-normalized response) (Drosophila OR47a; VOC concentration 1 μM): 0.00; OR47a response (VUAA1-normalized response) (Drosophila OR47a; VOC concentration 10 μM): 0.00; OR47a response (VUAA1-normalized response) (Drosophila OR47a; VOC concentration 100 μM): 0.00; OR71a response (VUAA1-normalized response) (Drosophila OR71a; VOC concentration 1 μM): 0.00; OR71a response (VUAA1-normalized response) (Drosophila OR71a; VOC concentration 10 μM): 0.00; OR71a response (VUAA1-normalized response) (Drosophila OR71a; VOC concentration 100 μM): 0.00
CCOC(=O)c1ccccc1 [ethyl benzoate]	0	0	10	0.0468	0.00	0.10	0	0	0.09883	0	5.54	11	0.04	0.0554	0.11	0	0.05543	0.1075	activation at 1 µM (Drosophila OR47a; [5]): 5%; activation at 10 µM (Drosophila OR47a; [5]): 0%; activation at 100 µM (Drosophila OR47a; [5]): 10%; OR71a Average response (VUAA1-normalized) (Drosophila OR71a; 1 μM VOC): 0.04; OR71a Average response (VUAA1-normalized) (Drosophila OR71a; 10 μM VOC): 0.06; OR71a Average response (VUAA1-normalized) (Drosophila OR71a; 100 μM VOC): 0.11
CCCC(=O)OCC [ethyl butyrate]	0	0	0	0.00	0.00	0.0448	0	0	0	0	0	0	0.00	0.00	0.00	0	0	0	–
CCCCCC(=O)OCC [ethyl hexanoate]	6.62	26	67	0.0662	0.26	0.67	0.06617	0.2596	0.6687	0	0	0	0.0156	0.0153	0.00	0	0	0	activation at 1 µM (Drosophila OR47a; [5]): 7%; activation at 10 µM (Drosophila OR47a; [5]): 26%; activation at 100 µM (Drosophila OR47a; [5]): 67%
CCOC(=O)CC [ethyl propionate]	0	0	0	0.00	0.0134	0.0175	0	0	0	0	0	0	0.0185	0.00	0.00	0	0	0	–
CCc1ccccc1 [ethylbenzene]	0	0	0	0.0189	0.0233	0.00	0	0	0	0	0	0	0.023	0.0127	0.0277	0	0	0	–
C=CCc1ccc(O)c(OC)c1 [eugenol]	0	0	0	0.00	0.0283	0.0436	0	0	0	0	0	0	0.00	0.0465	0.0247	0	0	0	–
